Results: patent US20250388602A1 (Genase Therapeutics B.V., priority 2022, published 2025)

Assay: in vitro

## COc1ccc(F)c(-n2ncc3c2COC[C@H]3NC(=O)c2ncn3c2CCCC3)c1Cl (single isomer, unassigned) [Ex-9]
% remaining at 60 min, 1 μM
  HLM % remaining: 100%
both, human, pooled liver microsomes
  half-life at 1 μM: > 6.08 h
